Data on eight compounds can be found in paper PMC10770490, “Two distinct modes of action of molecular glues in the plant hormone co-receptor COI1-JAZ system” (iScience, 2023).

The target of one data set is T1, COI1-JAZ1 (Arabidopsis thaliana, UniProt O04197+Q9LMA8, DEL221-253).
T1 construct: GST (N, cleaved yes); made in house; host or cells: Sf9 insect cells (COI1-ASK1); JAZ peptide by chemical synthesis
Put plainly: biochemical. It counts as binding. As for the experimental part: (§1) JAZ1/9 peptides were dissolved in sterilized water to generate 10 mM stock solutions and diluted to prepare 100 μM stock solutions. […] DSF experiments were carried out using StepOnePlus Real-Time PCR System (Thermo Fisher Scientific, Inc., MA, US). Protein Thermal Shift Dye (Thermo Fisher Scientific, Inc., MA, US) was used as the reporter dye. […] Samples were heated from 25 °C to 95 °C. The denaturation curve was obtained using Protein Thermal Shift Software (Thermo Fisher Scientific, Inc., MA, US) to afford ΔTm value for each condition. An average ΔTm value of three independent measurements was plotted, and ΔTm dose-response curves were analyzed with nonlinear curve-fitting analysis to evaluate Ka and Kd values using KaleidaGraph software (v4.1.1, Synergy Software).
(§2) The determination of the Kd value was conducted by curve fitting the dose-response ΔTm values. Experiments were performed in triplicate to obtain the mean and S.D. (shown as error bars). Dose-response curves were analyzed with the nonlinear curve-fitting analysis to evaluate apparent Ka and Kd values using KaleidaGraph v4.1.1 software.

Data set [1] addresses T2, COI1 (Arabidopsis thaliana, UniProt O04197).
T2 construct: GST (N, cleaved yes); made in house; host or cells: Sf9 insect cells
Put plainly: Differential scanning fluorimetry (DSF) assay, COI1 alone. It is filed as binding. The settings on record: for shift in the melting point of COI1: COI1 alone, substance titrated. As for the experimental part: as §1, with “COR/COR-MO/CFA-Ile were dissolved in DMSO, (3R,7S)/(3R,7R)-JA-Ile and cis-OPDA were dissolved in ethanol, JA was dissolved in sterilized water to generate 10 mM stock solutions and diluted with corresponding solvent for preparation of 100 μM and 1 mM stock solutions, respectively. JAZ1/9” for “JAZ1/9”
as §2
(In general: DSF heats the sample and reads unfolding from a dye or from intrinsic fluorescence.)

The nature of data set [2]: Isomerization under DSF conditions analyzed by UPLC-MS/MS. It is filed as physicochemical. The settings on record: DSF heating conditions. From the text:
Thus, some amount of (3R, 7S)-JA-Ile still exists under the DSF heating conditions.

The target in the next data set is T3, GST-COI1 (Arabidopsis thaliana, UniProt O04197).
T3 construct: made in house; host or cells: Sf9 insect cells
T3 sequence (O04197 1-592): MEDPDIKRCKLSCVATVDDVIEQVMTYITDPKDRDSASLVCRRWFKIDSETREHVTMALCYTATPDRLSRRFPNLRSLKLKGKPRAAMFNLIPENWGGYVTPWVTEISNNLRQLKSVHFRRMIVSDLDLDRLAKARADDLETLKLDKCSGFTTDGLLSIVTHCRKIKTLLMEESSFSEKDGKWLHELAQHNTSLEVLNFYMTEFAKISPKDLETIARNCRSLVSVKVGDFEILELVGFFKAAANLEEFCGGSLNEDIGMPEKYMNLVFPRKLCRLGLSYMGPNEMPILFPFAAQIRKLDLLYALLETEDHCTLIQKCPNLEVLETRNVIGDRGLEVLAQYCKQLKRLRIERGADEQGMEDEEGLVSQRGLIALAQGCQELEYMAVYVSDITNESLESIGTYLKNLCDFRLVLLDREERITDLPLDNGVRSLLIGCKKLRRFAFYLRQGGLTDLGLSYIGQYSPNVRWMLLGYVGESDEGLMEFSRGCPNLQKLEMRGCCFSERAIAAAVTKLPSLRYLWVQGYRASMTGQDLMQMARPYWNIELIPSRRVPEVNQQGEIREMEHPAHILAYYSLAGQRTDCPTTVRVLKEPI
T3 sequence (Q39255 1-160 partner): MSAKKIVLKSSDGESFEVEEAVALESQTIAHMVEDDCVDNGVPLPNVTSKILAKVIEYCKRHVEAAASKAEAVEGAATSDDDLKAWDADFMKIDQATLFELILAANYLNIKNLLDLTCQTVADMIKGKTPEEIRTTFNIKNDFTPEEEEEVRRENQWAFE
The data set is described as follows: Isothermal titration calorimetry (iTC), GST-COI1 only. It counts as binding. The protocol: (§3) The experiments were performed with iTC 200 Microcalorimeter (MicroCal, Malvern Panalytical, UK) at 25°C. GST-COI1 concentration was determined by BCA assay (Thermo Fisher Scientific, Inc., MA, US) using NanoPhotometerN60 (IMPLEN GmbH, Germany). […] The measurements were carried out by 19 × 2 μL successive injections of solutions (initial injection of 0.4 μL), with a 180s spacing time between injections, stirring of 750 rpm, and a reference power of 5 μcal/s. The measured heat changes of the binding reactions were integrated and processed using the standard “one set of sites” model implemented in the Origin (version 7.0) software package to determine the binding stoichiometry (n) and the equilibrium dissociation constant (Kd) and other thermodynamic parameters (ΔG, ΔH, ΔS).
Background: Isothermal titration calorimetry measures the heat released or taken up as one component is titrated into another.

Another data set has as its target T4, GST-COI1/JAZP1 (Arabidopsis thaliana, UniProt O04197+Q9LMA8, DEL221-253).
T4 construct: made in house; host or cells: Sf9 insect cells (GST-COI1/ASK1); JAZ peptide by chemical synthesis
Put plainly: Isothermal titration calorimetry (iTC), GST-COI1/JAZP1. It is filed as binding. The protocol:
The experiments were performed with iTC 200 Microcalorimeter (MicroCal, Malvern Panalytical, UK) at 25°C. […] The measurements were carried out by 19 × 2 μL successive injections of solutions (initial injection of 0.4 μL), with a 180s spacing time between injections, stirring of 750 rpm, and a reference power of 5 μcal/s. The measured heat changes of the binding reactions were integrated and processed using the standard “one set of sites” model implemented in the Origin (version 7.0) software package to determine the binding stoichiometry (n) and the equilibrium dissociation constant (Kd) and other thermodynamic parameters (ΔG, ΔH, ΔS).

Details of data set [3]: method as in PMID 19349968. The settings on record: after 1 h of heating at 95°C ref 12; cited from earlier work.
For the next data set, the system named is T5, JAZP1.
T5 construct: made in house; host or cells: chemical peptide synthesis
Put plainly: Isothermal titration calorimetry (iTC), JAZP1 only. It counts as binding, Arabidopsis thaliana. The settings on record: 150 μM ligand into JAZP1 (10 μM), only heat of dilution. As for the experimental part:
as §3

Data set [4] concerns the target T6, COI1-JAZ9 (Arabidopsis thaliana, UniProt O04197+Q8W4J8). Put plainly: DSF assay, COI1 with JAZ9 degron peptide (JAZP9). It is filed as binding. As for the experimental part: as §1, with “COR/COR-MO/CFA-Ile were dissolved in DMSO, (3R,7S)/(3R,7R)-JA-Ile and cis-OPDA were dissolved in ethanol, JA was dissolved in sterilized water to generate 10 mM stock solutions and diluted with corresponding solvent for preparation of 100 μM and 1 mM stock solutions, respectively. JAZ1/9” for “JAZ1/9”
as §2

Another data set addresses COI1-JAZP1. Also noted: method as in PMID 20927106. The settings on record: previously obtained ref 19; cited from earlier work.
Data set [5] addresses T2, COI1. The settings on record: read-out: Kd (COI1, iTC assay); previously reported using the iTC assay ref 18; cited from earlier work.
For data set [6], the target named is T6, COI1-JAZ9. Also noted: method as in PMID 19349968. The settings on record: pull-down assay, times stronger ref 12; cited from earlier work.

Like-named read-outs stand apart in the source and are kept apart here.

T1 sequence (Q9LMA8 200-220, stated change not applied, one chain of several): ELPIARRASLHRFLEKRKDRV
T6 sequence (Q8W4J8 218-238, one chain of several): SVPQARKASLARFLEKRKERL

For `CC/C=C\C[C@H]1C(=O)CC[C@@H]1CC(=O)O` (racemic) [racemic jasmonic acid, jasmonic acid], on COI1-JAZ1 (DSF, COI1 with JAZP1/9), the “effect of addition of JAZP1/9 on the shift in melting point” value was “did not affect the shift in melting point”. In addition, at COI1 [1] (DSF), the “shift in the melting point of COI1” value was “no shift”.

As usually defined, the Kd is the constant that tells how readily two partners part at equilibrium. On to `CC/C=C\C[C@@H]1C(=O)CC[C@@H]1CC(=O)N[C@H](C(=O)O)[C@@H](C)CC` [(3R, 7S)-JA-Ile, (3R, 7S)-jasmonoyl-L-isoleucine], for which, in data set [2], the “(3R, 7R)-JA-Ile formed by isomerization under DSF conditions” value worked out at 63.9% and the “(3R, 7S)-JA-Ile remaining under DSF conditions” value turned out to be 36.1%. Also, the Kd on GST-COI1 turned out to be 11 µM. Moreover, on GST-COI1 (iTC, GST-COI1), the “-TΔS” value was determined as 13.3 kcal/mol, the ΔG was -6.8 kcal/mol and the ΔH is -20.0 kcal/mol. At GST-COI1 (iTC, GST-COI1, N = 1 set manually due to low C condition), the “n (binding stoichiometry)” value was determined as 1.00. Besides, the Kd on COI1-JAZ1 (read-out: Kd COI1-JAZ1) is 17.7 µM. Further, on GST-COI1/JAZP1, the “-TΔS” value came out at 14.8 kcal/mol, the “n (binding stoichiometry)” value came to 0.641±0.0063, the ΔG was -9.5 kcal/mol and the ΔH is -24.3 kcal/mol. The “(3R, 7S)-JA-Ile isomerized to (3R, 7R)-JA-Ile” value in [3] is 65%. In addition, in the data set on JAZP1, the “interaction between JAZP1-ligand” value is “no interaction”. For the same compound, the equilibrium dissociation constant (Kd) at COI1-JAZ9 [4] amounted to 7.39 µM.

Regarding `CC[C@H]1C=C(C(=O)N[C@H](C(=O)O)[C@@H](C)CC)[C@H]2CCC(=O)[C@H]2C1` [CFA-Ile, (3R, 7S)-coronafacyl L-Ile], the Kd was determined as 2.66 µM on COI1-JAZ1 (read-out: Kd COI1-JAZ1), 2.95 µM at COI1-JAZ9 [4] and 14.1 µM at COI1 [1]. The “shift in the melting point of COI1” value at COI1 [1] (DSF) is reported as “significant shift”.

`CCC1C=C(C(=O)N[C@H](C(=O)O)C(C)C)C2CCC(=O)C2C1` (stereo partly drawn) [CFA-Val, (3R, 7S)-coronafacyl L-Val]: the dissociation constant Kd was determined as 6.63 µM on COI1-JAZ1 (DSF, 1 μM tag-free COI1 with 3 μM JAZP1, read-out: Kd COI1-JAZ1); 9.77 µM at COI1-JAZ9 [4] (DSF, 1 μM tag-free COI1 with 3 μM JAZP9); 28.1 µM at COI1 [1] (read-out: Kd COI1, DSF, 1 μM tag-free COI1, ΔTm dose-response curve fitting). The “shift in the melting point of COI1” value on COI1 [1] (DSF) is recorded as “significant shift”.

`CC[C@H]1C=C(C(=O)N[C@@]2(C(=O)O)C[C@@H]2CC)[C@H]2CCC(=O)[C@H]2C1` [COR, coronatine]: the equilibrium dissociation constant (Kd) is around 0.11 µM on COI1-JAZP1; 0.6 µM on COI1-JAZ1 (read-out: Kd COI1-JAZ1); 0.96 µM at COI1 [5]; 0.29 µM on COI1-JAZ9 [4]; 4.08 µM on COI1 [1]. Also, the “affinity for COI1-JAZ9 relative to (3R, 7S)-JA-Ile” value at COI1-JAZ9 [6] is “approximately 100 times”. Further, the “shift in the melting point of COI1” value on COI1 [1] (DSF) was “shifted to a higher temperature”.

For `CC[C@H]1C=C(C(=O)N[C@@]2(C(=O)O)C[C@@H]2CC)[C@H]2CCC(=NOC)[C@H]2C1` [COR-MO], the results for the Kd at COI1-JAZ1 (read-out: Kd COI1-JAZ1), on COI1-JAZ9 [4] and on COI1 [1] were 2.31 µM, 2.67 µM and 2.65 µM, respectively. In addition, the “shift in the melting point of COI1” value on COI1 [1] (DSF) is listed as “shifted to a higher temperature”.

As for `CCC=CCC1C(=O)CCC1CC(=O)NC1(C(=O)O)CC1CC` [JA-CMA, (3R, 7S)/(3R, 7R)-jasmonoyl CMA], the figures for the Kd at COI1-JAZ1 and at COI1-JAZ9 [4] were 33.5 µM and 24.2 µM, respectively. Also, at COI1 [1] (DSF), the “shift in the melting point of COI1” value was “little or no shift”.

As to `CC/C=C\C[C@@H]1C(=O)C=C[C@@H]1CCCCCCCC(=O)O` [cis-OPDA, (+)-cis-12-oxo-phytodienoic acid], the “shift in the melting point of COI1” value at COI1 [1] (DSF) was “no shift”.
